The source of these data is patent US20250032493A1, “Methods for Treating Diseases Using MALT1 Inhibitors” (RARIFIED BIOSCIENCES, INC., priority 2021, published 2025).

In data set [1] the target is T1, MALT1 (Homo sapiens, UniProt Q9UDY8).
T1 sequence (Q9UDY8 1-824): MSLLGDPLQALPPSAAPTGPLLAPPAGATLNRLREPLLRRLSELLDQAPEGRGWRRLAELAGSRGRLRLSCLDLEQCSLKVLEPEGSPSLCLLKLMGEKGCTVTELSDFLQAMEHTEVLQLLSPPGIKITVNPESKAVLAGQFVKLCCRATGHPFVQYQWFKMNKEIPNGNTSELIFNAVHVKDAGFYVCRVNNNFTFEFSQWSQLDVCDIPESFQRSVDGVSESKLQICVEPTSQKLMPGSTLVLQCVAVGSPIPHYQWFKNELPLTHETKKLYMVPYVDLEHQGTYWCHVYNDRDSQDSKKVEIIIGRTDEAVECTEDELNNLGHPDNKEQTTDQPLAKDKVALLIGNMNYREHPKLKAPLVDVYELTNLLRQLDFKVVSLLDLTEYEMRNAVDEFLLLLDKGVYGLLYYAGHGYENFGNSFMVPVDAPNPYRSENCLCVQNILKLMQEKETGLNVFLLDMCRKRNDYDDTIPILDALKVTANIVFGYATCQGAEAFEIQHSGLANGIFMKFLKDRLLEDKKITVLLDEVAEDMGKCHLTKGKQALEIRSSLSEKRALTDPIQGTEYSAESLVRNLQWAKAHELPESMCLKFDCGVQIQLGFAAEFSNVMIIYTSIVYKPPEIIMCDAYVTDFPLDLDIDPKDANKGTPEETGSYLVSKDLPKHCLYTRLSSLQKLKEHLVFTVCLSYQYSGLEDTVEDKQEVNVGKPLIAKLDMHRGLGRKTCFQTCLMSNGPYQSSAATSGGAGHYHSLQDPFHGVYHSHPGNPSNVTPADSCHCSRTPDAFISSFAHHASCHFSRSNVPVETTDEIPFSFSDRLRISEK
As to the kind of experiment: IC50 and Kd values of MALT1 inhibitors (FIG. 17C).

Data set [2] is described as follows: Mouse GVHD model: pharmacokinetics. The following applies: C57Bl/6, blood, oral; 100 mg/kg, on Day 55, mouse GVHD model; read-out: concentration at 24 hours post-administration. Type of data set: in vivo, mice. How it is done: (§1) At time=0, mice were dosed with 1) naive, 2) vehicle, 3) REO-751 MALT1 inhibitor (100 mg/kg), or 4) ruxolitinib (60 mg/kg). […] GVHD scores were determined by monitoring the behavior of the mice post-administration according to the following grading system.

Another data set concerns Tregs. Kind of data set: Naïve mice: Treg levels after 4 weeks of dosing. Type of data set: in vivo. The following applies: 100 mg/kg dose, in comparison to vehicle control. On the procedure: Mice were dosed for 4 weeks with REO-751 or REO-095 and splenocytes were analyzed for Treg levels. Specifically, REO-751 or REO-095 MALT1 inhibitors were dosed at one of 1 mg/kg (mpk), 10 mg/kg (mpk), or 100 mg/kg (mpk).

Data set [3] concerns spleen TFH cells, GC B cells, Treg cells. Kind of data set: Mouse GVHD model: spleen cell populations (TFH, GC B cells, Tregs). Type of data set: in vivo, mice. The source says:
Here, FIGS. 22C-22E show percentages of each cell population in spleen, as measured by flow cytometry.

Data set [4] concerns sclerodermatous GVHD (scGVHD) model. As to the kind of experiment: Mouse GVHD (scGVHD) model: GVHD score and progression-free survival. Type of data set: in vivo, mice. Conditions: 100 mg/kg orally once daily days 21-56, at the end (Day 56). On the procedure: In this example, REO-751 MALT1 inhibitor at a dose of 100 mg/kg was administered to mice of a graft versus host disease (GVHD) model to investigate the impact of the administration of the MALT1 inhibitor. The effects of MALT1 inhibitors were evaluated in scGVHD and delayed-type hypersensitivity (DTH) models. For the scGVHD model, bone marrow (1E7 cells) and splenocytes (4E6) from LP/J donors were transferred to C57Bl/6 recipients that had received 8.5. Gy of total irradiation on the previous day. For the DTH model, female Balb/c mice were immunized with keyhole limpet hemocyanin (KLH) subcutaneously on day 0 and challenged with KLH intradermally 7 days later.
as §1
FIGS. 22A-22F show results following administration of a MALT1 inhibitor. Here, “Cpd1” and Cpd2” as shown in FIGS. 22A-22F refer to REO-751 MALT1 inhibitor. FIGS. 22A and 22B show overall survival (OS) and progression-free survival (PFS) Kaplan Meier curves, respectively, in a murine model of sclerodermatous GVHD (scGVHD) following administration of a MALT1 inhibitor. […]

The test system of the next data set is splenic Tregs. As to the kind of experiment: Rat CIA model: splenic Treg levels. Type of data set: in vivo. Conditions: for reduction in the Treg levels: in comparison to vehicle. How it is done: For isolation of synovial fluid prior to study termination, animals were anesthetized and the skin on the hind limbs were separated to ensure exposure of knee joint. A small incision was made near the top of the knee joint and the articular cavity was rinsed with 60 μl phosphate-buffered saline (PBS) for 2 time and ˜50-60 μl synovial fluid was collected. The synovial fluid samples were spun down, and the supernatant stored at −80° C. prior to cytokine analysis. At study termination, plasma was prepared from whole blood and stored at −80° C. prior to cytokine analysis and measurement of total and anti-collagen IgG. Single cell suspensions were prepared from harvested spleens following standard methods and Treg frequencies measured by flow cytometry-based immunophenotyping of freshly isolated cells.
Harvested spleens were homogenized in cold PBS and cellular debris removed by passing through a […] cell strainer. The cell suspension was centrifuged at 300×g for 5 min at 4° C. and the pellet was treated with 1×RBC lysis buffer per manufacturer's protocol (Thermofisher). The washed cell pellet was resuspended for a final concentration of 5-10×10^6 cells/ml and 100 μl of cell suspension was processed for immunophenotyping. […] Cells were washed with cold FACS wash buffer (BD) and fixed with 1×FoxP3/Transcription Factor Fixation Buffer (Thermofisher) for overnight at 4° C. […] Cells were washed 2-3× with the permeabilization and wash buffer as mentioned earlier, and finally resuspended in FACS wash buffer. Samples were acquired on a BD LSRFortessa flow cytometer and data analyzed using the FlowJo software (BD).

The test system of data set [5] is rat collagen induced arthritis (CIA) model. As to the kind of experiment: Rat collagen-induced arthritis model: clinical score. Conditions: for reduction in the clinical score: in comparison to the vehicle treatment.
Excerpt: Adult female Lewis Rats (180-200 g body weight) were immunized subcutaneously with Type II bovine collagen/Incomplete Freund's Adjuvant emulsion on Day 0 and Day 7. On Day 14 rats were randomized based on clinical disease scores in different treatment groups. Rats received either once daily (q.d) dose of compounds via oral gavage or Vehicle (0.5% Carboxymethylcellulose-Na+0.5% Tween 80 in water, suspension) for 2 weeks. Naïve rats used as controls.
In data set [6] the target is T1, MALT1. As to the kind of experiment: Example IC50 and IC90 values of MALT1 inhibitors (blood concentration targets). Type of data set: cell-based. Conditions: example values, blood concentration target; read-out: IC90. The source says:
In various embodiments, the plasma PK profile of the MALT1 inhibitor refers to a time over an IC50 blood concentration target following administration to the subject. As used herein, a “time over an IC50 blood concentration target” refers to a period of time following administration in which a concentration of the MALT1 inhibitor in the subject's blood is above the IC50 value.
In various embodiments, the plasma PK profile of the MALT1 inhibitor refers to a time over an IC90 blood concentration target following administration to the subject. As used herein, a “time over an IC90 blood concentration target” refers to a period of time following administration in which a concentration of the MALT1 inhibitor in the subject's blood is above the IC90 value.

A further data set relates to IL-2R signaling (pSTAT5). The following applies: 1 μM, positive control. How it is done:
Purified Tregs were expanded as indicated above. […] Tregs were then stimulated with 25 IU IL-2 (Peprotech) for 15 min, followed by fixation with 2% paraformaldehyde. […] Levels of pSTAT5 were analyzed on a BD LSRFortessa flow cytometer.
Next, the impact of MALT1i on IL2R signaling was investigated. IL-2R signaling results in phosphorylation of STAT5 (pSTAT5) and is dependent on JAK1/3. Therefore, a flow cytometric readout of pSTAT5 was used to measure IL-2R activity and the JAK1/3-inhibitor tofacitinib served as a positive control for inhibition of pSTAT5.

SMILES strings stand for the structures. Entries after “also recorded” stand apart in the source; their conditions may differ.

As to `CO[C@@H](C)c1c(NC(=O)Nc2cnc(-n3nccn3)c(Cl)c2)cnc2cc(Cl)nn12` [REO-751], on MALT1 [1], the “potency (IC50 values and Kd value) in comparison to REO-095” value is given as “increased potency”. Further, the concentration at 24 h in data set [2] stood at 385 ng/mL. In the data set with Tregs, the “reduction of Treg levels” value was determined as 76%. Besides, the “difference in Treg with treatment” value in data set [3] is “No difference”. Also, in [4], the “mice achieving progression free survival” value is recorded as 40%.

As usually defined, the IC90 is the concentration needed for an effect of 90%. With `O=C(Nc1ccnc(C(F)(F)F)c1)Nc1cnn2ccc(Cl)c2c1C1CC1` [REO-703], in the data set with splenic Tregs (CIA rats, 3, 10 and 30 mg/kg), the “reduction in the Treg levels” value was “none of the doses of REO-703 resulted in a statistically significant reduction; also recorded: did not exhibit reduction of Tregs”. Besides, the results for the “reduction in the clinical score” value in [5] (3 mg/kg dose), in data set [5] (10 mg/kg dose) and in [5] (30 mg/kg dose) were 35%, 57% and 60%, respectively. Also, the “dose-dependent efficacy (FIG. 12A)” value in [5] (rat CIA model) was “showed efficacy in a rat CIA model in a dose-dependent manner”. The “log10AUC value at ~50% reduction in the clinical score” value (“log10AUC value at ~50% reduction” below) in [5] (rat CIA model) is on record as around 1.2 μg*hr/mL. In addition, the IC90 on MALT1 [6] came to 4.95 µM.

As for `CO[C@@H](C)c1c(Nc2ccc([C@H](N(C)C(=O)C3CCN(C(C)=O)CC3)C(F)(F)F)cc2)cnc2cc(Cl)nn12` [REO-076], the “reduction in the Treg levels” value is on record as 24% with splenic Tregs (3 mg/kg dose, CIA rats); 30% in the data set on splenic Tregs (10 mg/kg dose, CIA rats); 40% in the data set on splenic Tregs (30 mg/kg dose, CIA rats). In addition, the “log10AUC value at ~40% reduction in Treg levels” value with splenic Tregs (rat CIA model) is given as around 2.25 μg*hr/mL. The “reduction in the clinical score” value in [5] (3 mg/kg dose) is 23%; in [5] (10 mg/kg dose), 42%; in data set [5] (30 mg/kg dose) it was 74%. Moreover, in data set [5] (rat CIA model), the “log10AUC value at ~50% reduction” value was around 1.85 μg*hr/mL.

On to `O=C(Nc1ccnc(C(F)(F)F)c1)c1cnn(-c2cccc3c(=O)[nH]ccc23)c1C(F)(F)F` [REO-095], for which, in the data set with Tregs, the “reduction of Treg levels” value was 32%.

Turning to `C[C@@H]1CCN(C(=O)CC#N)C[C@@H]1N(C)c1ncnc2[nH]ccc12` [tofacitinib, reference compound], the “basal levels of pSTAT5 in Tregs” value in the data set on IL-2R signaling (pSTAT5) was “reduced”. The “reduction in the endpoint clinical score” value in [5] (5 mg/kg dose) is recorded as 75%.

As for `CO[C@@H](C)c1c(Nc2ccc([C@H](N(C)C(=O)C3CCS(=O)(=O)CC3)C(F)(F)F)cc2)cnc2cc(Cl)nn12` [REO-528], the “reduction in the Treg levels” value with splenic Tregs (3 mg/kg dose, CIA rats) stood at 3%. Further, the “reduction in the Treg levels” value in the data set on splenic Tregs (10 mg/kg dose, CIA rats) came out at 36%. Also, the “reduction in the Treg levels” value in the data set on splenic Tregs (30 mg/kg dose, CIA rats) is listed as 37%. In addition, in the data set with splenic Tregs (rat CIA model), the “dose-dependent reduction of Tregs (FIG. 12B)” value is recorded as “dose-dependent reduction of Tregs was observed”, the “log10Cmax value at ~40% reduction in Treg levels” value is given as around 3.9 ng/mL, the “log10Ctrough value at ~50% reduction in Treg levels” value is reported as around 2.6 ng/mL and the “qualitative Treg impact (FIG. 11)” value was “low Treg impact”. Besides, in data set [5] (3 mg/kg dose), the “reduction in the clinical score” value is reported as 24%. Also, the “reduction in the clinical score” value in data set [5] (10 mg/kg dose) was 59%. The “reduction in the clinical score” value in [5] (30 mg/kg dose) is on record as 74%. Moreover, in data set [5] (rat CIA model), the “dose-dependent efficacy (FIG. 12A)” value is reported as “showed efficacy in a rat CIA model in a dose-dependent manner”, the “log10AUC value at ~50% reduction” value was around 1.2 μg*hr/mL, the “log10Cmax value at ~50% reduction in the clinical score” value was around 3.3 ng/mL and the “log10Ctrough value at ~50% reduction in the clinical score” value is around 2.2 ng/mL. In addition, in [5] (rat CIA model), the “qualitative efficacy (FIG. 11)” value is reported as “high efficacy”. Also, the IC90 on MALT1 [6] was determined as 5.78 µM.
